Results taken from paper PMC3353862.
In brackets after ≈: the same amount, converted by molar mass.

Assays:
S. pneumoniae = assay: Broth microdilution MIC testing; format: cell-based, Streptococcus pneumoniae; conditions: for MIC S. pneumo: S. pneumoniae; for MIC: Streptococcus pneumoniae, read-out: MIC S. pneumo
M. catarrhalis = assay: Broth microdilution MIC testing; format: cell-based, Moraxella catarrhalis; conditions: for MIC: Moraxella catarrhalis
S. aureus = assay: Broth microdilution MIC testing; format: cell-based, Staphylococcus aureus; conditions: for MIC: Staphylococcus aureus, read-out: MIC S. aureus
[1] = system: bacterial protein synthesis (aminoacylation/translation system); assay: aminoacylation/translation (A/T) assay; format: biochemical; conditions: for IC50: A/T assay, Table 1, read-out: IC50; for fold reduction of potency/biochemical activity in the A/T assay: relative to 321521
H. influenzae = assay: Broth microdilution MIC testing; format: cell-based, Haemophilus influenzae; conditions: for MIC H. flu: H. influenzae; for MIC: Haemophilus influenzae, read-out: MIC H. flu
E. coli tolC mutants = assay: Broth microdilution MIC testing; format: cell-based, Escherichia coli; conditions: for MIC E. coli tolC: E. coli tolC mutants; for MIC: Escherichia coli, read-out: MIC E. coli tolC
[2] = system: E. coli modified with PMBN; assay: Broth microdilution MIC testing; format: cell-based, Escherichia coli; conditions: for MIC E. coli +PMBP: E. coli modified with PMBN; for MIC: Escherichia coli, read-out: MIC E. coli +PMBP
E. faecalis = assay: Broth microdilution MIC testing; format: cell-based, Enterococcus faecalis; conditions: for MIC E. fae: E. faecalis; for MIC: Enterococcus faecalis, read-out: MIC E. fae

Compound: COc1ccc(CN2CCc3nc(-c4ccccn4)[nH]c(=O)c3C2)c(OC)c1O [Compound 323236]
- MIC S. pneumo (S. pneumoniae): > 128 µg/mL
- MIC M. cat (M. catarrhalis): > 128 µg/mL
- MIC S. aureus (S. aureus): > 128 µg/mL
- IC50 [1]: 7.8 µM
- MIC H. flu (H. influenzae): > 128 µg/mL
- MIC E. coli tolC (E. coli tolC mutants): > 128 µg/mL
- MIC E. coli +PMBP [2]: > 128 µg/mL
- MIC E. fae (E. faecalis): > 128 µg/mL

Compound: O=c1[nH]c(-c2ccccn2)nc2c1CN(Cc1cccc(F)c1F)CC2 [Compound 323237]
- MIC S. pneumo (S. pneumoniae): 8 µg/mL (≈ 22.6 µM)
- MIC M. cat (M. catarrhalis): 0.5 µg/mL (≈ 1.41 µM)
- MIC S. aureus (S. aureus): 32 µg/mL (≈ 90.3 µM)
- IC50 [1]: 2.8 µM
- MIC H. flu (H. influenzae): 4 µg/mL (≈ 11.3 µM)
- MIC E. coli tolC (E. coli tolC mutants): 8 µg/mL (≈ 22.6 µM)
- MIC E. coli +PMBP [2]: 16 µg/mL (≈ 45.2 µM)
- MIC E. fae (E. faecalis): 64 µg/mL (≈ 181 µM)

Compound: CC(=O)Oc1ccc(CN2CCc3nc(-c4ccccn4)[nH]c(=O)c3C2)cc1 [Compound 323238]
- MIC S. pneumo (S. pneumoniae): > 128 µg/mL
- MIC M. cat (M. catarrhalis): 16 µg/mL (≈ 42.5 µM)
- MIC S. aureus (S. aureus): > 128 µg/mL
- IC50 [1]: 2.1 µM
- MIC H. flu (H. influenzae): 32 µg/mL (≈ 85 µM)
- MIC E. coli tolC (E. coli tolC mutants): > 128 µg/mL
- MIC E. coli +PMBP [2]: > 128 µg/mL
- MIC E. fae (E. faecalis): > 128 µg/mL

Compound: CCOc1ccc(CN2CCc3nc(-c4ccccn4)[nH]c(=O)c3C2)cc1Cn1ccnc1 [Compound 323239]
- MIC S. pneumo (S. pneumoniae): > 128 µg/mL
- MIC M. cat (M. catarrhalis): 8 µg/mL (≈ 18.1 µM)
- MIC S. aureus (S. aureus): > 128 µg/mL
- IC50 [1]: 3 µM
- MIC H. flu (H. influenzae): 64 µg/mL (≈ 145 µM)
- MIC E. coli tolC (E. coli tolC mutants): 64 µg/mL (≈ 145 µM)
- MIC E. coli +PMBP [2]: 128 µg/mL (≈ 289 µM)
- MIC E. fae (E. faecalis): 64 µg/mL (≈ 145 µM)

Compound: O=C(c1ccc(Cl)cc1)N1CCc2nc(-c3ccccn3)[nH]c(=O)c2C1 [Compound 323353]
- MIC (S. pneumoniae): 128 µg/mL (≈ 349 µM)
- MIC (M. catarrhalis): 8 µg/mL (≈ 21.8 µM)
- MIC (S. aureus): > 128 µg/mL
- IC50 [1]: 1.7 µM
- MIC (H. influenzae): 32 µg/mL (≈ 87.2 µM)
- MIC (E. coli tolC mutants): 128 µg/mL (≈ 349 µM)
- MIC [2]: 128 µg/mL (≈ 349 µM)
- MIC (E. faecalis): > 128 µg/mL

Compound: O=c1[nH]c(-c2cnccn2)nc2c1CN(Cc1ccc(Cl)cc1)CC2 [Compound 323354]
- MIC (S. pneumoniae): > 128 µg/mL
- MIC (M. catarrhalis): 16 µg/mL (≈ 45.2 µM)
- MIC (S. aureus): > 128 µg/mL
- IC50 [1]: 21.6 µM
- fold reduction of potency/biochemical activity in the A/T assay [1]: tenfold
- MIC (H. influenzae): > 128 µg/mL
- MIC (E. coli tolC mutants): > 128 µg/mL
- MIC [2]: > 128 µg/mL
- MIC (E. faecalis): > 128 µg/mL

Compound: Clc1ccc(CN2CCc3nc(-c4ccccn4)ncc3C2)cc1 [Compound 323355]
- MIC (S. pneumoniae): 64 µg/mL (≈ 190 µM)
- MIC (M. catarrhalis): 4 µg/mL (≈ 11.9 µM)
- MIC (S. aureus): 128 µg/mL (≈ 380 µM)
- IC50 [1]: 32.1 µM
- MIC (H. influenzae): 64 µg/mL (≈ 190 µM)
- MIC (E. coli tolC mutants): 64 µg/mL (≈ 190 µM)
- MIC [2]: 64 µg/mL (≈ 190 µM)
- MIC (E. faecalis): > 128 µg/mL

Compound: O=C(Cc1ccc(Cl)cc1)N1CCc2nc(-c3ccccn3)[nH]c(=O)c2C1 [Compound 323369]
- MIC (S. pneumoniae): 64 µg/mL (≈ 168 µM)
- MIC (M. catarrhalis): 4 µg/mL (≈ 10.5 µM)
- MIC (S. aureus): 128 µg/mL (≈ 336 µM)
- IC50 [1]: 2.01 µM
- MIC (H. influenzae): 16 µg/mL (≈ 42 µM)
- MIC (E. coli tolC mutants): 64 µg/mL (≈ 168 µM)
- MIC [2]: 32 µg/mL (≈ 84 µM)
- MIC (E. faecalis): 64 µg/mL (≈ 168 µM)

Compound: Cc1cccc(-c2nc3c(c(=O)[nH]2)CN(Cc2ccc(Cl)cc2)CC3)n1 [Compound 332052]
- MIC (S. pneumoniae): > 128 µg/mL
- MIC (M. catarrhalis): 32 µg/mL (≈ 87.2 µM)
- MIC (S. aureus): > 128 µg/mL
- biochemical activity in the A/T assay [1]: completely abolished activity
- IC50 [1]: > 300 µM
- MIC (H. influenzae): > 64 µg/mL
- MIC (E. coli tolC mutants): > 128 µg/mL
- MIC [2]: > 128 µg/mL
- MIC (E. faecalis): > 128 µg/mL

Compound: O=c1[nH]c(-c2ccco2)nc2c1CN(Cc1ccc(Cl)cc1)CC2 [Compound 332053]
- MIC (S. pneumoniae): > 128 µg/mL
- MIC (M. catarrhalis): > 128 µg/mL
- MIC (S. aureus): > 128 µg/mL
- biochemical activity in the A/T assay [1]: abolished all biochemical activity
- IC50 [1]: > 300 µM
- MIC (H. influenzae): > 64 µg/mL
- MIC (E. coli tolC mutants): > 128 µg/mL
- MIC [2]: > 128 µg/mL
- MIC (E. faecalis): > 128 µg/mL

Compound: O=c1nc(-c2ccccn2)nc2ccn(Cc3ccc(Cl)cc3)cc1-2 [Compound 332055]
- MIC (S. pneumoniae): 128 µg/mL (≈ 367 µM)
- MIC (M. catarrhalis): 32 µg/mL (≈ 91.7 µM)
- MIC (S. aureus): > 128 µg/mL
- IC50 [1]: 16.4 µM
- MIC (H. influenzae): 16 µg/mL (≈ 45.9 µM)
- MIC (E. coli tolC mutants): 128 µg/mL (≈ 367 µM)
- MIC [2]: 64 µg/mL (≈ 183 µM)
- MIC (E. faecalis): 64 µg/mL (≈ 183 µM)

Compound: O=c1[nH]c(-c2cccs2)nc2c1CN(Cc1ccc(Cl)cc1)CC2 [Compound 332057]
- MIC (S. pneumoniae): > 128 µg/mL
- MIC (M. catarrhalis): > 128 µg/mL
- MIC (S. aureus): > 128 µg/mL
- IC50 [1]: 101 µM
- fold reduction of potency/biochemical activity in the A/T assay [1]: over 40 fold
- MIC (H. influenzae): > 128 µg/mL
- MIC (E. coli tolC mutants): > 128 µg/mL
- MIC [2]: > 128 µg/mL
- MIC (E. faecalis): > 128 µg/mL
